Measurements as given in patent US12310975B2, “Modulators of BCL6 proteolysis and associated methods of use” (Arvinas Operations, Inc., priority 2019, dated 2025).

How the values were obtained:
[1] = target: T1, BCL6 (Homo sapiens (Human), UniProt P41182); assay: BCL6 TR-FRET assay (BCL6-Avitag-Biotin / BCoR-Cy5 peptide); assay type: binding
In short: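 TR-FRET displacement assay: biotinylated His-SUMO-BCL6-Avitag (2 nM) pre-incubated 30 min at room temperature with compound (12-point 3-fold titration), then BCoR-Cy5 peptide (100 nM) and Eu-streptavidin (2 nM) added. Buffer: 50 mM HEPES pH 7.5, 125 mM NaCl, 0.01% Triton X, glutathione or DTT, 0.03% BSA. Read after 2 h.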

[2] = target: T1, BCL6; assay: Immunofluorescence high content imaging of BCL6 degradation in T47D cells; assay type: cell-based; details: for Dmax: T47D
In short: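 Read-out is BCL6 immunofluorescence quantified by high-content imaging (10×, 4 fields per well) of T47D breast cancer cells. Cells were exposed for 3 days to degrader in an 11-point, 3-fold serial dilution reaching a final top concentration of 0.1 or 1 μM.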

| EC50 [1] | IC50 [2] | Dmax [2] | SMILES |
| --- | --- | --- | --- |
| > 100 nM | 50 to 100 nM | < 50% | CNC(=O)COc1cc2cc(Nc3nc(N4CCO[C@@H](COc5ccc6c(c5)C(=O)N(C5CCC(=O)NC5=O)C6=O)C4)ncc3Cl)ccc2n(C)c1=O (stereo partly drawn) [compound 222, 2-((6-((5-chloro-2-((2R)-2-(((2-(2,6-dioxopiperidin-3-yl)-1,3-dioxoisoindolin-5-yl)oxy)methyl)morpholino)pyrimidin-4-yl)amino)-1-methyl-2-oxo-1,2-dihydroquinolin-3-yl)oxy)-N-methylacetamide] |
| > 100 nM | ≥ 100 nM |  | Cn1c(=O)c(-n2ccnc2)cc2cc(Nc3nc(N4CCC(CN5CCN(c6ccc7c(c6)C(=O)N(C6CCC(=O)NC6=O)C7=O)CC5)CC4)ncc3Cl)ccc21 (stereo not shown) [compound 224, 5-(4-((1-(4-((3-(1H-imidazol-1-yl)-1-methyl-2-oxo-1,2-dihydroquinolin-6-yl)amino)-5-chloropyrimidin-2-yl)piperidin-4-yl)methyl)piperazin-1-yl)-2-(2,6-dioxopiperidin-3-yl)isoindoline-1,3-dione] |
| > 100 nM | ≥ 100 nM |  | Cn1c(=O)c(Cn2cccn2)cc2cc(Nc3nc(N4CCC(CN5CCN(c6ccc7c(c6)C(=O)N(C6CCC(=O)NC6=O)C7=O)CC5)CC4)ncc3Cl)ccc21 (stereo not shown) [compound 225, 5-(4-((1-(4-((3-((1H-pyrazol-1-yl)methyl)-1-methyl-2-oxo-1,2-dihydroquinolin-6-yl)amino)-5-chloropyrimidin-2-yl)piperidin-4-yl)methyl)piperazin-1-yl)-2-(2,6-dioxopiperidin-3-yl)isoindoline-1,3-dione] |
| 10 to 50 nM | 50 to 100 nM | < 50% | CNC(=O)COc1cc2cc(Nc3nc(N4CCOC(COc5cccc6c5C(=O)N(C5CCC(=O)NC5=O)C6=O)C4)ncc3Cl)ccc2n(C)c1=O (stereo not shown) [compound 226, 2-((6-((5-chloro-2-(2-(((2-(2,6-dioxopiperidin-3-yl)-1,3-dioxoisoindolin-4-yl)oxy)methyl)morpholino)pyrimidin-4-yl)amino)-1-methyl-2-oxo-1,2-dihydroquinolin-3-yl)oxy)-N-methylacetamide] |
| > 100 nM | < 10 nM | < 50% | CNC(=O)COc1cc2cc(Nc3nc(N4CCC(OC5CN(c6ccc7c(c6)C(=O)N(C6CCC(=O)NC6=O)C7=O)C5)CC4)ncc3Cl)ccc2n(C)c1=O (stereo not shown) [compound 227, 2-((6-((5-chloro-2-(4-((1-(2-(2,6-dioxopiperidin-3-yl)-1,3-dioxoisoindolin-5-yl)azetidin-3-yl)oxy)piperidin-1-yl)pyrimidin-4-yl)amino)-1-methyl-2-oxo-1,2-dihydroquinolin-3-yl)oxy)-N-methylacetamide] |
| > 100 nM | ≥ 100 nM | 50 to 70% | CNC(=O)COc1cc2cc(Nc3nc(N4CCO[C@H](COc5ccc6c(c5)C(=O)N(C5CCC(=O)NC5=O)C6=O)C4)ncc3Cl)ccc2n(C)c1=O (stereo partly drawn) [compound 228, 2-((6-((5-chloro-2-((2S)-2-(((2-(2,6-dioxopiperidin-3-yl)-1,3-dioxoisoindolin-5-yl)oxy)methyl)morpholino)pyrimidin-4-yl)amino)-1-methyl-2-oxo-1,2-dihydroquinolin-3-yl)oxy)-N-methylacetamide] |
| 10 to 50 nM | 10 to 50 nM | 50 to 70% | CNC(=O)COc1cc2cc(Nc3nc(N4CCN(CCN5CCN(c6ccc7c(c6)C(=O)N(C6CCC(=O)NC6=O)C7=O)CC5)CC4)ncc3Cl)ccc2n(C)c1=O (stereo not shown) [compound 229, 2-((6-((5-chloro-2-(4-(2-(4-(2-(2,6-dioxopiperidin-3-yl)-1,3-dioxoisoindolin-5-yl)piperazin-1-yl)ethyl)piperazin-1-yl)pyrimidin-4-yl)amino)-1-methyl-2-oxo-1,2-dihydroquinolin-3-yl)oxy)-N-methylacetamide] |
| < 10 nM | 10 to 50 nM | < 50% | CNC(=O)COc1cc2cc(Nc3nc(N4CCN(CCCN5CCN(c6ccc7c(c6)C(=O)N(C6CCC(=O)NC6=O)C7=O)CC5)CC4)ncc3Cl)ccc2n(C)c1=O (stereo not shown) [compound 230, 2-((6-((5-chloro-2-(4-(3-(4-(2-(2,6-dioxopiperidin-3-yl)-1,3-dioxoisoindolin-5-yl)piperazin-1-yl)propyl)piperazin-1-yl)pyrimidin-4-yl)amino)-1-methyl-2-oxo-1,2-dihydroquinolin-3-yl)oxy)-N-methylacetamide] |
| 50 to 100 nM | ≥ 100 nM |  | CNC(=O)COc1cc2cc(Nc3nc(N4CCN(C)C(COc5cccc6c5C(=O)N(C5CCC(=O)NC5=O)C6=O)C4)ncc3Cl)ccc2n(C)c1=O (stereo not shown) [compound 231, 2-((6-((5-chloro-2-(3-(((2-(2,6-dioxopiperidin-3-yl)-1,3-dioxoisoindolin-4-yl)oxy)methyl)-4-methylpiperazin-1-yl)pyrimidin-4-yl)amino)-1-methyl-2-oxo-1,2-dihydroquinolin-3-yl)oxy)-N-methylacetamide] |
| > 100 nM | 10 to 50 nM | < 50% | CNC(=O)COc1cc2cc(Nc3nc(N4CCN(CC5CCN(c6ccc(C(=O)NC7CCC(=O)NC7=O)nc6)CC5)CC4)ncc3Cl)ccc2n(C)c1=O (stereo not shown) [compound 232, 5-(4-((4-(5-chloro-4-((1-methyl-3-(2-(methylamino)-2-oxoethoxy)-2-oxo-1,2-dihydroquinolin-6-yl)amino)pyrimidin-2-yl)piperazin-1-yl)methyl)piperidin-1-yl)-N-(2,6-dioxopiperidin-3-yl)picolinamide] |
| > 100 nM | ≥ 100 nM | < 50% | CNC(=O)COc1cc2cc(Nc3nc(N4CCN(CC5CCN(c6ccc(C(=O)NC7CCC(=O)NC7=O)c(F)c6)CC5)CC4)ncc3Cl)ccc2n(C)c1=O (stereo not shown) [compound 233, 4-(4-((4-(5-chloro-4-((1-methyl-3-(2-(methylamino)-2-oxoethoxy)-2-oxo-1,2-dihydroquinolin-6-yl)amino)pyrimidin-2-yl)piperazin-1-yl)methyl)piperidin-1-yl)-N-(2,6-dioxopiperidin-3-yl)-2-fluorobenzamide] |
| < 10 nM | ≥ 100 nM |  | CNC(=O)COc1cc2cc(Nc3nc(N4CCN5CCN(c6ccc7c(c6)C(=O)N(C6CCC(=O)NC6=O)C7=O)CC5C4)ncc3Cl)ccc2n(C)c1=O (stereo not shown) [compound 234, 2-((6-((5-chloro-2-(8-(2-(2,6-dioxopiperidin-3-yl)-1,3-dioxoisoindolin-5-yl)octahydro-2H-pyrazino[1,2-a]pyrazin-2-yl)pyrimidin-4-yl)amino)-1-methyl-2-oxo-1,2-dihydroquinolin-3-yl)oxy)-N-methylacetamide] |
| > 100 nM | ≥ 100 nM |  | Cn1c(=O)c(-c2cnoc2)cc2cc(Nc3nc(N4CCC(CN5CCN(c6ccc7c(c6)C(=O)N(C6CCC(=O)NC6=O)C7=O)CC5)CC4)ncc3Cl)ccc21 (stereo not shown) [compound 235, 5-(4-((1-(5-chloro-4-((3-(isoxazol-4-yl)-1-methyl-2-oxo-1,2-dihydroquinolin-6-yl)amino)pyrimidin-2-yl)piperidin-4-yl)methyl)piperazin-1-yl)-2-(2,6-dioxopiperidin-3-yl)isoindoline-1,3-dione] |
| < 10 nM | 10 to 50 nM | 50 to 70% | CC(=O)COc1cc2cc(Nc3nc(N4CCN(CCCN5CCN(c6ccc7c(c6)C(=O)N(C6CCC(=O)NC6=O)C7=O)CC5)CC4)ncc3Cl)ccc2n(C)c1=O (stereo not shown) [compound 236, 5-(4-(3-(4-(5-chloro-4-((1-methyl-2-oxo-3-(2-oxopropoxy)-1,2-dihydroquinolin-6-yl)amino)pyrimidin-2-yl)piperazin-1-yl)propyl)piperazin-1-yl)-2-(2,6-dioxopiperidin-3-yl)isoindoline-1,3-dione] |
| 10 to 50 nM | 10 to 50 nM | < 50% | CNC(=O)COc1cc2cc(Nc3nc(N4CCC[C@H](COc5ccc6c(c5)C(=O)N(C5CCC(=O)NC5=O)C6=O)C4)ncc3Cl)ccc2n(C)c1=O (stereo partly drawn) [compound 237, 2-((6-((5-chloro-2-((3S)-3-(((2-(2,6-dioxopiperidin-3-yl)-1,3-dioxoisoindolin-5-yl)oxy)methyl)piperidin-1-yl)pyrimidin-4-yl)amino)-1-methyl-2-oxo-1,2-dihydroquinolin-3-yl)oxy)-N-methylacetamide] |
| 10 to 50 nM | < 10 nM | ≥ 70% | CNC(=O)COc1cc2cc(Nc3nc(N4CCN(C(C)(C)C5CCN(c6ccc7c(c6)CN(C6CCC(=O)NC6=O)C7=O)CC5)CC4)ncc3Cl)ccc2n(C)c1=O (stereo not shown) [compound 270, 2-{[6-({5-chloro-2-[4-(2-{1-[2-(2,6-dioxopiperidin-3-yl)-1-oxo-2,3-dihydro-1H-isoindol-5-yl]piperidin-4-yl}propan-2-yl)piperazin-1-yl]pyrimidin-4-yl}amino)-1-methyl-2-oxo-1,2-dihydroquinolin-3-yl]oxy}-N-methylacetamide] |
| 10 to 50 nM | 50 to 100 nM | 50 to 70% | CNC(=O)COc1cc2cc(Nc3nc(N4CCOC(CN5CCN(c6cccc7c6C(=O)N(C6CCC(=O)NC6=O)C7=O)CC5)C4)ncc3Cl)ccc2n(C)c1=O (stereo not shown) [compound 271, 2-{[6-({5-chloro-2-[2-({4-[2-(2,6-dioxopiperidin-3-yl)-1,3-dioxo-2,3-dihydro-1H-isoindol-4-yl]piperazin-1-yl}methyl)morpholin-4-yl]pyrimidin-4-yl}amino)-1-methyl-2-oxo-1,2-dihydroquinolin-3-yl]oxy}-N-methylacetamide] |
| < 10 nM | 10 to 50 nM | 50 to 70% | CNC(=O)COc1cc2cc(Nc3nc(N4CCOC(CN5CCN(c6ccc7c(c6)C(=O)N(C6CCC(=O)NC6=O)C7=O)CC5)C4)ncc3Cl)ccc2n(C)c1=O (stereo not shown) [compound 272, 2-{[6-({5-chloro-2-[2-({4-[2-(2,6-dioxopiperidin-3-yl)-1,3-dioxo-2,3-dihydro-1H-isoindol-5-yl]piperazin-1-yl}methyl)morpholin-4-yl]pyrimidin-4-yl}amino)-1-methyl-2-oxo-1,2-dihydroquinolin-3-yl]oxy}-N-methylacetamide] |
